Structures are written as SMILES.

Our source for the IC50 values is US20130123325A1, “USE OF BOCEPREVIR AND RELATED COMPOUNDS IN ATHEROSCLEROSIS, HEART FAILURE, RENAL DISEASES, LIVER DISEASES OR INFLAMMATORY DISEASES” (priority 2011, published 2013).

For the assay, the target named is T1, Recombinant human cathepsin A (Homo sapiens, UniProt P10619).
T1 construct: Recombinant human cathepsin A (residues 29-480, with a C-terminal 10-His tag); 10-His (C); purchased R & D Systems 1049-SE
T1 sequence (P10619 29-326 limits assumed): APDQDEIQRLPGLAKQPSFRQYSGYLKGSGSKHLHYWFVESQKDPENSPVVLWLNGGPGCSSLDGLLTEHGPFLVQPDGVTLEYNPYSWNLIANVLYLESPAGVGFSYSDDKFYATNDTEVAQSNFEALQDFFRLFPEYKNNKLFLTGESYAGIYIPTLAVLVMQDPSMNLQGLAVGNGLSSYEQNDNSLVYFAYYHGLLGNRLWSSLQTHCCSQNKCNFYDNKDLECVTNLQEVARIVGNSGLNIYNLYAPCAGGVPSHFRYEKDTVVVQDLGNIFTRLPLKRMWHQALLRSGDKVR
T1 sequence (P10619 327-480 limits assumed): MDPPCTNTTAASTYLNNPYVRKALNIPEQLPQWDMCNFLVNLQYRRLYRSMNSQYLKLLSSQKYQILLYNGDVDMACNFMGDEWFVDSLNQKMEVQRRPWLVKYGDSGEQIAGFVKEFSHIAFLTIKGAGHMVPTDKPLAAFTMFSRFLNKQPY
The experiment in a line: Cathepsin A inhibitory activity. Conditions: Bodipy FL-labeled bradykinin substrate 2 μM, pH 5.5, microfluidic capillary electrophoresis. It counts as biochemical. Here is the method:
Recombinant human cathepsin A (residues 29-480, with a C-terminal 10-His tag; R & D Systems, # 1049-SE) was proteolytically activated with recombinant human cathepsin L (R & D Systems, # 952-CY). Briefly, cathepsin A was incubated at 10 μg/ml with cathepsin L at 1 μg/ml in activation buffer (25 mM 2-(morpholin-4-yl)-ethanesulfonic acid (MES), pH 6.0, containing 5 mM dithiothreitol (DTT)) for 15 min at 37° C. Cathepsin L activity was then stopped by the addition of the cysteine protease inhibitor E-64 (N-(trans-epoxysuccinyl)-L-leucine-4-guanidinobutylamide; Sigma-Aldrich, # E3132; dissolved in activation buffer/DMSO) to a final concentration of 10 μM.
The activated cathepsin A was diluted in assay buffer (25 mM MES, pH 5.5, containing 5 mM DTT) and mixed with the test compound (dissolved in assay buffer containing (v/v) 3% DMSO) or, in the control experiments, with the vehicle in a multiple assay plate. […]
Uncleaved substrate and product were then separated by a microfluidic capillary electrophoresis on a LabChip® 3000 Drug Discovery System (12-Sipper-Chip; Caliper Life Sciences) and quantified by determination of the respective peak areas. Substrate turnover was calculated by dividing product peak area by the sum of substrate and product peak areas, and the enzyme activity and the inhibitory effect of the test compound thus quantified. […]

Regarding `CC(C)(C)NC(=O)N[C@H](C(=O)N1C[C@H]2[C@@H]([C@H]1C(=O)NC(CC1CCC1)C(=O)C(N)=O)C2(C)C)C(C)(C)C` (stereo partly drawn) [Boceprevir, (1R,2S,5S)—N-[(2E)-4-amino-1-cyclobutyl-3,4-dioxobutan-2-yl]-3-{(2S)-2-[(tert-butylcarbamoyl)amino]-3,3-dimethylbutanoyl}-6,6-dimethyl-3-azabicyclo[3.1.0]hexane-2-carboxamide], the IC50 (as a rule, the midpoint of a concentration-inhibition curve) is 1 µM.
